Experimental data: ChEMBL document CHEMBL4507276 (2021); call rule not given here

What was measured:
[1] = molecular target: 5-hydroxytryptamine receptor 1E (Homo sapiens) (UniProt P28566); settings: Compound concentration 10.0 uM
[2] = molecular target: Mitogen-activated protein kinase kinase kinase 13 (Homo sapiens) (UniProt O43283); settings: Compound concentration 1000.0 nM
[3] = molecular target: Sodium channel regulatory subunit beta-1 (Rattus norvegicus) (UniProt Q00954); test: NA+/SITE2/RA Eurofins-Panlabs selectivity data (BI); settings: Compound concentration 10.0 uM
[4] = molecular target: Protein kinase C gamma type (Homo sapiens) (UniProt P05129); test: PRKCG Invitrogen selectivity data (BI); settings: Compound concentration 3.0 uM
[5] = molecular target: L-type Ca2+ channel (verapamil site), Cav1.2 alpha-1C (Rattus norvegicus, UniProt P22002); test: CA+/VERSI/R Cerep selectivity data (BI); design: mode of action inhibitor; settings: rat brain, probe [3H](-)D888, compound concentration 20 uM, read-out: % Ctrl
[6] = molecular target: Protein kinase C zeta type (Homo sapiens) (UniProt Q05513); test: PRKCZ Invitrogen selectivity data (BI); settings: Compound concentration 3.0 uM
[7] = molecular target: Myosin light chain kinase, smooth muscle (Homo sapiens) (UniProt Q15746); test: MYLK Invitrogen selectivity data (BI); settings: Compound concentration 3.0 uM
[8] = molecular target: Adenosine receptor A1 (Homo sapiens) (UniProt P30542); test: A1/HU Eurofins-Panlabs selectivity data (BI); settings: Compound concentration 10.0 uM
[9] = molecular target: Beta-1 adrenergic receptor (Homo sapiens) (UniProt P08588); test: BETA1/HU Eurofins-Panlabs selectivity data (BI); settings: Compound concentration 10.0 uM
[10] = molecular target: T1, Ephrin type-B receptor 1 (Homo sapiens) (UniProt P54762); test: EPHB1 Invitrogen selectivity data (BI); settings: Compound concentration 3.0 uM
T1 sequence (whole entry): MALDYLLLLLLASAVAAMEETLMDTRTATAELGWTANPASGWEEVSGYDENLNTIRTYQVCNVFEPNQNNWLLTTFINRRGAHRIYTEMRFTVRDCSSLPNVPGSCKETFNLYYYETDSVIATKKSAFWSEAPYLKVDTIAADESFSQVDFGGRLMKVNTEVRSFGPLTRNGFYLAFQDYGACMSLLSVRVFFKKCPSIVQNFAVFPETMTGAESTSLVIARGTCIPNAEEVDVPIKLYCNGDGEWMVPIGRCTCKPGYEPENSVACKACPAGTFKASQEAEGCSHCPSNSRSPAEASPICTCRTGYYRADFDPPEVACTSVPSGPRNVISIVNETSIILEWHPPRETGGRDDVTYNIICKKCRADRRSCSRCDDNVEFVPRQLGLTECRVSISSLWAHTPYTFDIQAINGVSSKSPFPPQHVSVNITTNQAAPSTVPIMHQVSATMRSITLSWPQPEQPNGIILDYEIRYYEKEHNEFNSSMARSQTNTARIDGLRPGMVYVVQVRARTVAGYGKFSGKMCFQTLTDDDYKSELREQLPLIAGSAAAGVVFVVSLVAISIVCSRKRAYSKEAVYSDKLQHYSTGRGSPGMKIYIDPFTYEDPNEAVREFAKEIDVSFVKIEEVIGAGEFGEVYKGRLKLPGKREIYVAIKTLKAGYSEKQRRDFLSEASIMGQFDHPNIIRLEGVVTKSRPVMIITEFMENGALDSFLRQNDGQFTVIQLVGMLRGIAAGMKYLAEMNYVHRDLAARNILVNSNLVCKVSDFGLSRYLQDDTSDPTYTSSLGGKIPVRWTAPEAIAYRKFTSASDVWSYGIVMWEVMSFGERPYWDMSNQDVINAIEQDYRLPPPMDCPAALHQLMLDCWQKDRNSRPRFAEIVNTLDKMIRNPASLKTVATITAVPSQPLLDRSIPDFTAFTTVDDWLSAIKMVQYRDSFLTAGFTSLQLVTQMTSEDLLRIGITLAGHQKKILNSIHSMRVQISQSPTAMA

[11] = molecular target: 5-hydroxytryptamine receptor 2A (Homo sapiens) (UniProt P28223); test: 5HT2AH_AGON Cerep selectivity data (BI); settings: filed as agonist, Compound concentration 20.0 uM
[12] = molecular target: Histamine H2 receptor (Homo sapiens) (UniProt P25021); test: H2/APT/HS Cerep selectivity data (BI); settings: filed as antagonist, Compound concentration 20.0 uM
[13] = molecular target: Ribosomal protein S6 kinase alpha-3 (Homo sapiens) (UniProt P51812); test: RPS6KA3 Invitrogen selectivity data (BI); settings: Compound concentration 3.0 uM
[14] = test system: Cricetinae; test: ML2(MT3) Cerep selectivity data (BI); settings: Compound concentration 20.0 uM
[15] = molecular target: Tyrosine-protein kinase Fer (Homo sapiens) (UniProt P16591); test: FER Invitrogen selectivity data (BI); settings: Compound concentration 3.0 uM
[16] = molecular target: Casein kinase I isoform gamma-1 (Homo sapiens) (UniProt Q9HCP0); test: CSNK1G1 Invitrogen selectivity data (BI); settings: Compound concentration 3.0 uM
[17] = molecular target: 5-hydroxytryptamine receptor 6 (Homo sapiens) (UniProt P50406); test: 5HT6/H Cerep selectivity data (BI); settings: Compound concentration 20.0 uM
[18] = molecular target: Alpha-1D adrenergic receptor (Homo sapiens) (UniProt P25100); test: ALPHA1D/H Eurofins-Panlabs selectivity data (BI); settings: Compound concentration 10.0 uM
[19] = molecular target: RAF proto-oncogene serine/threonine-protein kinase (Homo sapiens) (UniProt P04049); test: RAF1 Invitrogen selectivity data (BI); settings: Compound concentration 3.0 uM
[20] = molecular target: MAP kinase-activated protein kinase 2 (Homo sapiens) (UniProt P49137); test: MAPKAPK2 Invitrogen selectivity data (BI); settings: Compound concentration 3.0 uM
[21] = molecular target: BDNF/NT-3 growth factors receptor (Homo sapiens) (UniProt Q16620); test: NTRK2 Invitrogen selectivity data (BI); settings: Compound concentration 3.0 uM
Sequence of BDNF/NT-3 growth factors receptor (Homo sapiens) (Q16620 32-822 limits assumed): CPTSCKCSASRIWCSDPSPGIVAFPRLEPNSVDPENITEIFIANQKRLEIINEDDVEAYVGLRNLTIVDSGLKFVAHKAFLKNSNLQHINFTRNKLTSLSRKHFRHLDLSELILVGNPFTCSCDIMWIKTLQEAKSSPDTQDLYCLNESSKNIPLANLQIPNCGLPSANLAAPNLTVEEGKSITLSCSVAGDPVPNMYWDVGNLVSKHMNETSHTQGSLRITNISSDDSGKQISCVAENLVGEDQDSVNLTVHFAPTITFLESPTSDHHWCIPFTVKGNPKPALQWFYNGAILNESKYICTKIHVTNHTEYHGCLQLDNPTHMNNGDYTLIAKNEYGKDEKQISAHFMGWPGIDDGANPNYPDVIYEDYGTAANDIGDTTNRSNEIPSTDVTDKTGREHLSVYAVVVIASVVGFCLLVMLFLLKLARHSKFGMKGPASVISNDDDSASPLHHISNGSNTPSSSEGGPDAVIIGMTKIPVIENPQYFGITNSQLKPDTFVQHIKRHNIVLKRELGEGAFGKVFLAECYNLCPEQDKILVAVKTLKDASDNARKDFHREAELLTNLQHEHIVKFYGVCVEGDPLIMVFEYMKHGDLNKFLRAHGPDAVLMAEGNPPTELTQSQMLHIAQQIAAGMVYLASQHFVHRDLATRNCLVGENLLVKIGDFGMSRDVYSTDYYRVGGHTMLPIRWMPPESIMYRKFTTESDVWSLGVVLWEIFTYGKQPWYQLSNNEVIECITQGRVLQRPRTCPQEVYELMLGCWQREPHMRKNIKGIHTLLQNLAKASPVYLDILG

Sequence of Ribosomal protein S6 kinase alpha-3 (Homo sapiens) (P51812 whole entry): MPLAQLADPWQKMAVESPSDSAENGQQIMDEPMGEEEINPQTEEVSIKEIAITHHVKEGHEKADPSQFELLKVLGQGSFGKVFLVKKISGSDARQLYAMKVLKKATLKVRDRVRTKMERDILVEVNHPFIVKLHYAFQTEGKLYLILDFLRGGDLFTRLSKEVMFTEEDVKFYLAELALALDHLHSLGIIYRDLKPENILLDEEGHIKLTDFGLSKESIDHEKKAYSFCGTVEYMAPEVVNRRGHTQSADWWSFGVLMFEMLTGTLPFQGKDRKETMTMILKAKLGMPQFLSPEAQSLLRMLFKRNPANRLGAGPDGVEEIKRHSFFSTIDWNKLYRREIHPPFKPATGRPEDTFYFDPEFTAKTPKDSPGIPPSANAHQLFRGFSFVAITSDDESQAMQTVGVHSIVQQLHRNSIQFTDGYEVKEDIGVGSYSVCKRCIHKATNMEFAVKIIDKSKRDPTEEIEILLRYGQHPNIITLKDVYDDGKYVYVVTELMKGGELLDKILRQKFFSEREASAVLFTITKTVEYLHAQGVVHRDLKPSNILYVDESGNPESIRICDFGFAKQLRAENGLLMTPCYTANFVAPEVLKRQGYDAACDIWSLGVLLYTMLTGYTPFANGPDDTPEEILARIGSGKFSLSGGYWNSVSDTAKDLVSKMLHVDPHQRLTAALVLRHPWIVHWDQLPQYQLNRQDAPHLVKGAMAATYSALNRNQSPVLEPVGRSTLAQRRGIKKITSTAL
Sequence of 5-hydroxytryptamine receptor 1E (Homo sapiens) (P28566 whole entry): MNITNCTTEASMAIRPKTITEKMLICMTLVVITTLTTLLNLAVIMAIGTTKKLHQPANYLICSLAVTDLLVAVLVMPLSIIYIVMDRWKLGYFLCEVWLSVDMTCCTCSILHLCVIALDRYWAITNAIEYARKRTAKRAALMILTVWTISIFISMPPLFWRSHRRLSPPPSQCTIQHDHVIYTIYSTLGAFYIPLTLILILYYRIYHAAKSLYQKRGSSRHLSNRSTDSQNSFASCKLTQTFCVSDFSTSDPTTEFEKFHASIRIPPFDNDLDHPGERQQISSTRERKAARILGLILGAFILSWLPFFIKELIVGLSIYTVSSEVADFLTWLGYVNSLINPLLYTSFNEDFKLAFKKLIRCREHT
Sequence of 5-hydroxytryptamine receptor 6 (Homo sapiens) (P50406 whole entry): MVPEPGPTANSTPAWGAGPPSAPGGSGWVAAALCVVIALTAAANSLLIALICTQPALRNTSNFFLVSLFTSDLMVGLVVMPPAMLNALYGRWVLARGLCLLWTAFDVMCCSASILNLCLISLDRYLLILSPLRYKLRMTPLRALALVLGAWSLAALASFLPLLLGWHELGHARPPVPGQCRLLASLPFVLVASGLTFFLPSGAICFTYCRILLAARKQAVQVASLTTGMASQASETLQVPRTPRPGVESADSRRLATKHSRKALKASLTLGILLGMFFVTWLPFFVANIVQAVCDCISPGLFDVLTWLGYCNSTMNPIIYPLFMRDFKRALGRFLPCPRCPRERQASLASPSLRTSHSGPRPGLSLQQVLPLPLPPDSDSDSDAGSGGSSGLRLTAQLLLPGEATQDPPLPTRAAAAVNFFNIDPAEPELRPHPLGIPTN
Sequence of L-type Ca2+ channel (verapamil site), Cav1.2 alpha-1C (P22002 whole entry): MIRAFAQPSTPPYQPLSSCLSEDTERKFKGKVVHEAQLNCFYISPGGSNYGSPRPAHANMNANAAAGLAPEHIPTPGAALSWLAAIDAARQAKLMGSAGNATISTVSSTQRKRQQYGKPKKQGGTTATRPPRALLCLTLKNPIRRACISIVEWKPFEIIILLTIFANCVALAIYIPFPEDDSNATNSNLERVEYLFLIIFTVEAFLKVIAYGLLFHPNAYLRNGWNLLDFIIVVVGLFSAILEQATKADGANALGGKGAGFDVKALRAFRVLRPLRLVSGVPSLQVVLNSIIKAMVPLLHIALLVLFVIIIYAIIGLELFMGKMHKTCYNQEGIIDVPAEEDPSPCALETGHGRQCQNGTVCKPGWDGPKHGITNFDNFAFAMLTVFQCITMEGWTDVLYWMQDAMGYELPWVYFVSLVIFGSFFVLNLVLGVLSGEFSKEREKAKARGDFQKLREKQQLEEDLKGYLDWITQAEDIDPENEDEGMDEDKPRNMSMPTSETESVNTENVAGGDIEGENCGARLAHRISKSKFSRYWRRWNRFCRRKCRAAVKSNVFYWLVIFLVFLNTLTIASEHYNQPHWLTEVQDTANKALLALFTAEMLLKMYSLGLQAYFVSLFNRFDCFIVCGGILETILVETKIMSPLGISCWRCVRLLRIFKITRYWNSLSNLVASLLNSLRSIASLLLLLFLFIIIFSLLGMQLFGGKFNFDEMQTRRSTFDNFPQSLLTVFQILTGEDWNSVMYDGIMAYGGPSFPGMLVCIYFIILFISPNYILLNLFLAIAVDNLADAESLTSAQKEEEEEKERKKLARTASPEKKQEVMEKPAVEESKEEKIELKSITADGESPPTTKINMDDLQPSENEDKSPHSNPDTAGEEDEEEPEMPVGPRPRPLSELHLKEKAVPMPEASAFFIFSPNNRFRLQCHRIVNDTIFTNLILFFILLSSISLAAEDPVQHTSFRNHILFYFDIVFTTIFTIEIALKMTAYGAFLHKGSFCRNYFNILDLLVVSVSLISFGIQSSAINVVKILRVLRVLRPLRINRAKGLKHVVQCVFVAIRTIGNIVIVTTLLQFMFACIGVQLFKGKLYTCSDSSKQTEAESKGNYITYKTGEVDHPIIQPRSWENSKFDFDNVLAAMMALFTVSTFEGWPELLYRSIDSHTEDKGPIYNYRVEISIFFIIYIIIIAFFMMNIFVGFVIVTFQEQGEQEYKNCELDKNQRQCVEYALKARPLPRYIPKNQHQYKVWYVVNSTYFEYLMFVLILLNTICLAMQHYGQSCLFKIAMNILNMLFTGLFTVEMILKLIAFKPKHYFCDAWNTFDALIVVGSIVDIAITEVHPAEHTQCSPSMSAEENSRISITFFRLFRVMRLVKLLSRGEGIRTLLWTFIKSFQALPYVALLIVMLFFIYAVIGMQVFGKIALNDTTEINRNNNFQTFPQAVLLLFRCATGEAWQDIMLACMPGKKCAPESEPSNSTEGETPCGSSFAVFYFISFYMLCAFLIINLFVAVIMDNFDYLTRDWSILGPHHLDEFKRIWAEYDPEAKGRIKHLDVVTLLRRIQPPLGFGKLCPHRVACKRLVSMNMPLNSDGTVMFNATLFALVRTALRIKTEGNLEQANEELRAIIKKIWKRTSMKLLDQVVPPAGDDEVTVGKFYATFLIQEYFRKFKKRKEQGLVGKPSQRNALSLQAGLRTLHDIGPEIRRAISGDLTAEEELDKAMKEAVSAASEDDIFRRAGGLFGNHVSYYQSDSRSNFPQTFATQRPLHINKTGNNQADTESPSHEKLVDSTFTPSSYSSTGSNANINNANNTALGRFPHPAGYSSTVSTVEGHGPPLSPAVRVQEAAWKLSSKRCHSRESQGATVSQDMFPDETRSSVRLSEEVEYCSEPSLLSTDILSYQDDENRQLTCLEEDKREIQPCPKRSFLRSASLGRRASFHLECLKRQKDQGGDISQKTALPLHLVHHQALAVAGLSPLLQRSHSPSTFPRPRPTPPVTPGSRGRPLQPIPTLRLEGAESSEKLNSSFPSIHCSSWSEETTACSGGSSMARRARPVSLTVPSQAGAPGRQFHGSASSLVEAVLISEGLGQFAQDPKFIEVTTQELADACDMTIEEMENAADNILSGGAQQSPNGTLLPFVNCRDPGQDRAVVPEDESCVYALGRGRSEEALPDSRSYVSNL
Sequence of Beta-1 adrenergic receptor (Homo sapiens) (P08588 whole entry, looked up): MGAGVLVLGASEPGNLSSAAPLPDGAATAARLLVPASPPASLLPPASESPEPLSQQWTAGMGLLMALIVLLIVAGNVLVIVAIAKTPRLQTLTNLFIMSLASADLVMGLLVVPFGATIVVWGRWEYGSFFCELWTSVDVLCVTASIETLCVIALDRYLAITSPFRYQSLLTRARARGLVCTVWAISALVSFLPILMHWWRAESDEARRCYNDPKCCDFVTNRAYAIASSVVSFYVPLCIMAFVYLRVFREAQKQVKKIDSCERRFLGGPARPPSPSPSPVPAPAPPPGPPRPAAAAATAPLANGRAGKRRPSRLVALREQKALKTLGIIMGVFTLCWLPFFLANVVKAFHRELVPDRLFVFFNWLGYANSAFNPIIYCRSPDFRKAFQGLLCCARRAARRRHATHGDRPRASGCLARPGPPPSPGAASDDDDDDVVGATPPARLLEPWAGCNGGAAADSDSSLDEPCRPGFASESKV

Question: How did the inhibition [1] turn out when `CN(C)C(=O)Cn1cc(-c2nc(C3(c4ccc(-c5cnc(N)nc5)cc4)CC3)no2)cn1` [BI 0153] was run?
Answer: -7.33%

Question: And the residual activity [2]?
Answer: 100%

Question: Which residual activity [3] does the source give for `CN(C)C(=O)Cn1cc(-c2nc([C@@](C)(c3ccc(-c4cnc(N)nc4)cc3)C3CC3)no2)cn1` [BI 665915] here?
Answer: 84%

Question: And the residual activity [4]?
Answer: 100%

Question: And the activity at 20 µM [5]?
Answer: 90% (not active)

Question: What about the residual activity [6] of the same molecule?
Answer: 100%

Question: And the residual activity [7]?
Answer: 100%

Question: What about the residual activity [8] of the same molecule?
Answer: 75%

Question: And the residual activity [9]?
Answer: 103%

Question: What about the residual activity [10] of the same molecule?
Answer: 93%

Question: And the residual activity [11]?
Answer: 102%

Question: What about the residual activity [12] of the same molecule?
Answer: 96%

Question: And the residual activity [13]?
Answer: 105%

Question: What about the residual activity [14] of the same molecule?
Answer: 70%

Question: And the residual activity [15]?
Answer: 98.5%

Question: And the residual activity [16]?
Answer: 97.5%

Question: And the residual activity [17]?
Answer: 95%

Question: And the residual activity [18]?
Answer: 107%

Question: And the residual activity [19]?
Answer: 97%

Question: And the residual activity [20]?
Answer: 96.5%

Question: And the residual activity [21]?
Answer: 94.5%
